In patent publication US20020091144A1, “Treatment of apoptotic cell death” (Johns Hopkins University, priority 2000, published 2002):

Assays:
[1] = system: Neonatal rat cardiac myocytes; experiment: Mitochondrial membrane potential, JC-1 flow cytometry, cardiac myocytes; type: cell-based
Protocol: The effects of mitoKATP channel activation by flow cytometry (FIGS. 2F-J) were further quantified. Incubation with 200 μM H2O2 for 2 h decreased the red fluorescence and shifted the distribution curve leftward. […] To confirm the central role of mitoKATP channels, we examined another mitoKATP channel opener, pinacidil.
(§1) Cytoprotective effects of diazoxide in neurons also was evaluated. […] Staining was conducted as follows: loss of mitochondrial membrane potential (ΨΔ) was assessed using either a laser scanning confocal microscope or flow cytometry analysis of cells stained with 5,5′,6,6′-tetrachloro-1,1′,3,3′-tetraethylbenzimidazolecarbocyanide iodine (JC-1, Molecular Probes). Cells were incubated with 2 μg/mL JC-1 for 10 min in 37° C. After washing the dye, cells on dishes were scanned with a confocal microscope at 10x magnification. The dye was excited by the 488 nm line of an argon laser, and the 543 nm line of a helium/neon laser. The red emission of the dye is due to a potential-dependent aggregation in the mitochondria, reflecting ΨΔ. Green fluorescence reflects the monomeric form of JC-1, occuring in the cytosol after mitochondrial membrane depolarization. The fluorescence intensity of the field was measured using integrated image analysis software (Simple32; Compix, Inc.), which was programmed to automatically detect all areas of red or green fluorescence above background. The data are plotted as mean values of arbitrary units of fluorescence intensity. For flow cytometry analysis, cells were harvested by trypsinization after loading of the dye, and analyzed by FACScan (10,000 cells/sample). The excitation wavelength was 488 nm, and the emission fluorescence for JC-1 was monitored at 530 (FL-1) and 582 nm (FL-2). The flow cytometry data are analyzed using Cell Quest (Becton Dickinson, Immunocytometry Systems).

[2] = system: Neonatal rat cardiac myocytes; experiment: TUNEL staining of H2O2-induced apoptosis; type: cell-based
Protocol: (§2) Neonatal rat cardiac myocytes in primary culture were randomly assigned to one of four experimental groups: 1) control group, 2) incubation with 200 μM H2O2, 3) 100 μM diazoxide, applied together with 200 μM H2O2, 4) 100 μM diazoxide and 500 μM 5-HD, applied together with 200 μM H2O2. […] Staining was conducted as follows. TUNEL staining was performed according to the manufacturer's protocol (Roche Molecular Biochemicals). Fluorescein labels incorporated in nucleotide polymers were detected by laser scanning confocal microscopy at excitation wavelength of 488 rim (argon laser). […] Necrotic cells had been excluded from these specimens since they became non-adherent and were removed when the medium was decanted and the cell layers were washed in PBS.

[3] = system: cytochrome c; experiment: Cytochrome c immunofluorescence (translocation to cytosol); type: cell-based, rat
Protocol: as §2, with “PBS. […] This effect was blocked by the mitoKATP channel antagonist 5-HD (FIG. 1D). […] That immunofluorescence was conducted as follows: cells were plated on glass coverslips, treated with drugs as indicated, fixed in ice-cold 1:1 mixture of methanol/acetone, blocked with 10% normal goat serum and 0.075% saponin in PBS, and incubated with primary antibody dissolved in blocking solution at a dilution of 1:100. […] These coverslips were mounted with antifading fluorescence mounting medium and were examined by a laser scanning confocal microscope (Zeiss, LSM 410), using 40x water-immersion lens and 2x optical zoom. […]” for “PBS.”

[4] = system: caspase-3; experiment: Activated caspase-3 immunofluorescent staining; type: cell-based, rat
Protocol: as §2, with “PBS. […] This effect was blocked by the mitoKATP channel antagonist 5-HD (FIG. 1D). […] That immunofluorescence was conducted as follows: cells were plated on glass coverslips, treated with drugs as indicated, fixed in ice-cold 1:1 mixture of methanol/acetone, blocked with 10% normal goat serum and 0.075% saponin in PBS, and incubated with primary antibody dissolved in blocking solution at a dilution of 1:100. […] These coverslips were mounted with antifading fluorescence mounting medium and were examined by a laser scanning confocal microscope (Zeiss, LSM 410), using 40x water-immersion lens and 2x optical zoom. […]” for “PBS.”

[5] = system: caspase-7; experiment: Activated caspase-7 immunofluorescent staining; type: cell-based, rat
Protocol: as §2, with “PBS. […] This effect was blocked by the mitoKATP channel antagonist 5-HD (FIG. 1D). […] That immunofluorescence was conducted as follows: cells were plated on glass coverslips, treated with drugs as indicated, fixed in ice-cold 1:1 mixture of methanol/acetone, blocked with 10% normal goat serum and 0.075% saponin in PBS, and incubated with primary antibody dissolved in blocking solution at a dilution of 1:100. […] These coverslips were mounted with antifading fluorescence mounting medium and were examined by a laser scanning confocal microscope (Zeiss, LSM 410), using 40x water-immersion lens and 2x optical zoom. […]” for “PBS.”

[6] = system: poly(ADP-ribose) polymerase (PARP); experiment: Cleaved PARP immunofluorescent staining; type: cell-based, rat
Protocol: as §2, with “PBS. […] This effect was blocked by the mitoKATP channel antagonist 5-HD (FIG. 1D). […] That immunofluorescence was conducted as follows: cells were plated on glass coverslips, treated with drugs as indicated, fixed in ice-cold 1:1 mixture of methanol/acetone, blocked with 10% normal goat serum and 0.075% saponin in PBS, and incubated with primary antibody dissolved in blocking solution at a dilution of 1:100. […] These coverslips were mounted with antifading fluorescence mounting medium and were examined by a laser scanning confocal microscope (Zeiss, LSM 410), using 40x water-immersion lens and 2x optical zoom. […]” for “PBS.”

[7] = system: PARP holoenzyme; experiment: Immunoblot of PARP holoenzyme; type: cell-based, rat
Protocol: (U) Immunoblot of PARP in neonatal rat cardiac myocytes. Cell lysates from each experimental group were subjected to immunoblot analysis (30 μg protein/lane) with monoclonal antibody against 117-kDa PARP holoenzyme. Cells were treated for either 8 h or 16 hours. To confirm these findings using complementary methods, we examined PARP protein levels as a biochemical indicator of the activation of downstream caspases in each group.

[8] = system: Neonatal rat cardiac myocytes; experiment: Mitochondrial membrane potential, JC-1 confocal image analysis, cardiac myocytes; type: cell-based
Protocol: Redistribution of cytochrome c has been linked to the loss of mitochondrial membrane potential (ΨΔ) and the opening of the mitochondrial permeability transition pore (23). We assessed ΨΔ in H2O2-stimulated myocytes using a fluorescent probe, JC-1 (24). […] Cells exposed to 200 μM H2O2 for 2 h lose punctate red staining (FIG. 2B), in favor of a diffuse green cytosolic signal indicative of the loss of ΨΔ. […] The protective effect of diazoxide is blocked by 500 μM 5-HD (FIG. 2D). These observations were rendered quantitative by automated image analysis (24). FIG. 2E summarizes the red fluorescence, an indicator of ΨΔ.
as §1

[9] = system: rat cerebellar granule neurons; experiment: Mitochondrial membrane potential, JC-1 staining, cerebellar granule neurons; type: cell-based
Protocol: as §1, with “The red emission of the dye is due to a potential-dependent aggregation in the mitochondria, reflecting ΨΔ.” left out, “The flow cytometry data are analyzed using Cell Quest (Becton Dickinson, Immunocytometry Systems).” left out

[10] = system: mitoKATP channel; conditions: intact heart cells; read-out: value for mitoKATP channel activation; cited from earlier work
[11] = 500 μM 5-HD + 100 μM diazoxide + 200 μM H2O2
[12] = 100 μM diazoxide with 200 μM H2O2

In the case of `COc1ccc(Cl)cc1C(=O)NCCc1ccc(S(=O)(=O)NC(=O)NC2CCCCC2)cc1` [glibenclamide], the “effect of KATP blocker on diazoxide protection of ΨΔ” value ([1]; glibenclamide 10 μM with diazoxide and H2O2) is reported as “reversed the salutary effect of diazoxide”.

For `CC(N/C(=N\C#N)Nc1ccncc1)C(C)(C)C` (stereo not shown) [pinacidil], the “restoring the loss of ΨΔ induced by H2O2” value ([1]; 100 μM pinacidil, 200 μM H2O2) was “equi-effective to diazoxide”.

For `CCCCCC(O)CCCC(=O)O` (stereo not shown) [5-HD, 5-hydroxydecanoate], the “effect on diazoxide protection against TUNEL positivity” value ([2]; 500 μM 5-HD + 100 μM diazoxide + 200 μM H2O2, 16 h) was “blocked”, the “effect on diazoxide inhibition of cytochrome c translocation” value [3, 11] was “abrogated the effect of diazoxide” and the “effect on diazoxide inhibition of caspase-3 activation” value [4, 11] was “negated the effect of diazoxide”. For the same molecule, the “effect on diazoxide inhibition of caspase-7 activation” value [5, 11] was “abolished the anti-apoptosic effect of diazoxide”, the “effect on diazoxide inhibition of PARP cleavage” value [6, 11] was “prevented the diazoxide effect” and the “effect on diazoxide protection of PARP holoenzyme” value ([7]; 5-HD + diazoxide + H2O2, 8 h or 16 hours) was “abolished the protective effect of diazoxide”. For the same molecule, the “effect on diazoxide prevention of loss of ΨΔ, automated image analysis” value ([8]; 500 μM 5-HD + 100 μM diazoxide + 200 μM H2O2 for 2 h) was “antagonized the salutary effect of diazoxide”, the “effect on diazoxide protection of ΨΔ” value ([8]; 500 μM 5-HD + 100 μM diazoxide + 200 μM H2O2 for 2 h, confocal images) was “blocked” and the “effect of 5-HD alone on ΨΔ” value ([1]; 5-HD 500 μM + H2O2, absence of diazoxide) was “no effect on ΨΔ”. For the same molecule, the “effect on diazoxide protection of ΨΔ, flow cytometry” value ([1]; 5-HD 500 μM + diazoxide 100 μM + 200 μM H2O2) was “abolished the effect of diazoxide” and the “effect on diazoxide protection of ΨΔ in neurons” value ([9]; 500 μM 5-HD + 100 μM diazoxide + 100 μM H2O2 for 1 h) was “blocked”.

For `CC1=NS(=O)(=O)c2cc(Cl)ccc2N1` [diazoxide], the “H2O2-induced TUNEL positive nuclei” value ([2]; 100 μM diazoxide with 200 μM H2O2, 16 h) was “decreased the frequency of H2O2-induced TUNEL positive nuclei”, the “H2O2-induced cytochrome c translocation to the cytoplasm” value ([3]; 100 μM diazoxide with 200 μM H2O2, 16 hours) was “inhibited the translocation of cytochrome c” and the “H2O2-induced activation of caspase-3” value [4, 12] was “inhibited the H2O2-induced activation of caspase-3”. For the same molecule, the “H2O2-induced activation of caspase-7” value [5, 12] was “inhibited H2O2-induced activation of caspase-7”, the “H2O2-induced PARP cleavage” value [6, 12] was “inhibited the H2O2-induced PARP cleavage” and the “loss of 117-kDa PARP holoenzyme band” value ([7]; diazoxide with H2O2, 8 h or 16 hours) was “attenuates the loss of PARP holoenzyme”. For the same molecule, the “H2O2-induced loss of mitochondrial membrane potential (ΨΔ), JC-1 red staining” value ([8]; 100 μM diazoxide, 200 μM H2O2 for 2 h, confocal images) was “protects against H2O2-induced loss of mitochondrial integrity”, the EC50 ([8]; Rattus norvegicus, 200 μM H2O2 for 2 h, red fluorescence, automated image analysis, read-out: EC50 for prevention of loss of ΨΔ) was 40 µM and the “loss of ΨΔ, red fluorescence by automated image analysis” value ([8]; diazoxide 20-200 μM, 200 μM H2O2 for 2 h) was “prevented loss of ΨΔ in a dose-dependent manner”. The “H2O2-induced dissipation of ΨΔ, red fluorescence distribution” value ([1]; diazoxide 20, 50, 100 μM, 200 μM H2O2 for 2 h) was “prevented the H2O2-induced dissipation of ΨΔ in a dose-dependent manner”, the “H2O2-induced loss of ΨΔ in neurons, JC-1 red staining” value ([9]; 100 μM diazoxide, 100 μM H2O2 for 1 h) was “protects against H2O2-induced loss of mitochondrial integrity” and the EC50 [10] was 27 µM.
